Data set [1] concerns the target Calcium/calmodulin-dependent protein kinase kinase 1 (Homo sapiens) (UniProt Q8N5S9). Nature of the data set: Selectivity interaction (LanthaScreen Eu Kinase Binding Assay) EUB0001632a CAMKK1. As to conditions: at 10 µM. (In TR-FRET formats the signal depends on donor and acceptor labels being close together.)
Data set [2] deals with PI3-kinase p110-alpha/p85-alpha (Homo sapiens), P27986+P42336 [E545K]. Nature of the data set: Selectivity interaction (Adapta Assay) EUB0001632a PIK3CA. It is filed as protein-complex assay. The note with it: at 10 µM.
The target of data set [3] is Histone-lysine N-methyltransferase SETD2 (Homo sapiens) (UniProt Q9BYW2). The note with it: at 1 µM.
Data set [4] concerns the target Protein arginine N-methyltransferase 8 (Homo sapiens, UniProt Q9NR22). As to conditions: at 10 µM.
In data set [5] the target is Fibroblast growth factor receptor 4 (Homo sapiens, UniProt P22455). As to the kind of experiment: Selectivity interaction (KinomeScan (DiscoverX)) EUB0001079a FGFR4. As to conditions: at 1 µM.
The target of data set [6] is Casein kinase I isoform gamma-1 (Homo sapiens) (UniProt Q9HCP0). Nature of the data set: Selectivity interaction (KinomeScan (DiscoverX)) EUB0001079a CSNK1G1. The note with it: at 1 µM.
In data set [7] the target is T1, Tyrosine-protein kinase JAK2 (Homo sapiens, UniProt O60674). As to the kind of experiment: Selectivity interaction (KinomeScan (DiscoverX)) EUB0001619a JAK2. As to conditions: at 1 µM.
The target in data set [8] is T2, Muscle, skeletal receptor tyrosine-protein kinase (Homo sapiens) (UniProt O15146).
T2 sequence (whole entry): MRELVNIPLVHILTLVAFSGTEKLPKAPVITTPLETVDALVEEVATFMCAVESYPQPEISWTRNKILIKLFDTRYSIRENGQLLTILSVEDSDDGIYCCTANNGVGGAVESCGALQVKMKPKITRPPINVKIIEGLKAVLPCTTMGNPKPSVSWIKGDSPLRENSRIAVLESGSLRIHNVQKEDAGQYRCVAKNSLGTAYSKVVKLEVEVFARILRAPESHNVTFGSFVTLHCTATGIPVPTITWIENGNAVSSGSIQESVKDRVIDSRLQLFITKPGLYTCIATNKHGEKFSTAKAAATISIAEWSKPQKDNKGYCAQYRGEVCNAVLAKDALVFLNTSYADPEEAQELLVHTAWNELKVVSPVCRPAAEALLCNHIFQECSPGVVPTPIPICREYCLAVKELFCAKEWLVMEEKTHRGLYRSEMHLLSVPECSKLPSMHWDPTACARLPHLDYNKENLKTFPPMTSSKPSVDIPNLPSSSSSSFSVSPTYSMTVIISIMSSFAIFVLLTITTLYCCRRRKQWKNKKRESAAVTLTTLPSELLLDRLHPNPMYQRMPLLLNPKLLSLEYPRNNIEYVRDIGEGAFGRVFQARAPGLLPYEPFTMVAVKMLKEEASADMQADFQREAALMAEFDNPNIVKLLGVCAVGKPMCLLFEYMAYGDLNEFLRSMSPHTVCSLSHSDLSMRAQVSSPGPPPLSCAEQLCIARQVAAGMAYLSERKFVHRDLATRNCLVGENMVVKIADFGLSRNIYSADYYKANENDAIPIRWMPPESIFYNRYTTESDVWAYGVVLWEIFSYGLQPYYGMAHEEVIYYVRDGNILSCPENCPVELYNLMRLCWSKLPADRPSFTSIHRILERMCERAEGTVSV
Nature of the data set: Selectivity interaction (KinomeScan (DiscoverX)) EUB0001619a MUSK. The note with it: at 1 µM.

Data set [9] concerns the target Bone morphogenetic protein receptor type-1A (Homo sapiens, UniProt P36894). As to the kind of experiment: Selectivity interaction (Kinase panel (Invitrogen)) EUB0000639a BMPR1A. As to conditions: at 200 nM.
In data set [10] the target is Serine/threonine-protein kinase 38-like (Homo sapiens) (UniProt Q9Y2H1). Nature of the data set: Selectivity interaction (ActivX KiNativ screen (kinase selectivity in THP-1 cell lysates)) EUB0000639a STK38L. It is filed as subcellular. As to conditions: lysate.
Data set [11] concerns the target Serine/threonine-protein kinase PRP4 homolog (Homo sapiens) (UniProt Q13523). As to the kind of experiment: Selectivity interaction (ActivX KiNativ screen (kinase selectivity in THP-1 cell lysates)) EUB0000639a PRPF4. In kind it is subcellular. As to conditions: lysate, at 5 µM.
In data set [12] the target is STE20-like serine/threonine-protein kinase (Homo sapiens, UniProt Q9H2G2). Nature of the data set: Selectivity interaction (ActivX KiNativ screen (kinase selectivity in THP-1 cell lysates)) EUB0000639a SLK. In kind it is subcellular. As to conditions: lysate, at 0.2 µM.
The target in data set [13] is T3, Atypical kinase COQ8B, mitochondrial (Homo sapiens) (UniProt Q96D53).
T3 sequence (whole entry): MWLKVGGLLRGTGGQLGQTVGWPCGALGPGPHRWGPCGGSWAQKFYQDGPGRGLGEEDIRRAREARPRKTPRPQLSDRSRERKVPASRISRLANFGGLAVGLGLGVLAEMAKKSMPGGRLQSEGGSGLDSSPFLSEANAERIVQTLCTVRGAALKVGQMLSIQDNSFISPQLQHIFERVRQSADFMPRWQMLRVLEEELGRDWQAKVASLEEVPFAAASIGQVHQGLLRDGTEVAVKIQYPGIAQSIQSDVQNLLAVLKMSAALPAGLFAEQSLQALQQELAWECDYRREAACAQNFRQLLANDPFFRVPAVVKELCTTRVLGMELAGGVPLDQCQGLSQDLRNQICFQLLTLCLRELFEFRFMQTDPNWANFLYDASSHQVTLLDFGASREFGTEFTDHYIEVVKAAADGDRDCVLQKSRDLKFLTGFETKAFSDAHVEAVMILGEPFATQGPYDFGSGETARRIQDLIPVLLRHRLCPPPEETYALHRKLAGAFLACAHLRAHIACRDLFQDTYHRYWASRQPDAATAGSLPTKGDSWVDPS
As to conditions: at 10 µM.

The target of data set [14] is Casein kinase II subunit alpha' (Homo sapiens) (UniProt P19784). Nature of the data set: Selectivity interaction (KinomeScan (DiscoverX)) EUB0001049a CSNK2A2. The note with it: at 1 µM.
Data set [15] has as its target T1, Tyrosine-protein kinase JAK2. As to the kind of experiment: Selectivity interaction (KinomeScan (DiscoverX)) EUB0000695a JAK2. As to conditions: at 100 nM.
Data set [16] has as its target Bromodomain-containing protein 7 (Homo sapiens) (UniProt Q9NPI1). As to the kind of experiment: Selectivity interaction (Human bromodomain panel (DSF assay)) EUB0000233b BRD7.
Data set [17] deals with Type-2 angiotensin II receptor (Homo sapiens) (UniProt P50052). Nature of the data set: Selectivity interaction (Eurofins CEREP Diversity Profile (receptors and ion channels)) EUB0000279b AGTR2. As to conditions: at 10 µM.
In data set [18] the target is KCNQ1 (Homo sapiens, UniProt P51787). As to the kind of experiment: Selectivity interaction (Panel of kinases, GPCRs, ion channels and transporters (enzymatic assay)) EUB0000223bCl KCNQ1.
The target in data set [19] is Tyrosine-protein kinase Yes (Homo sapiens) (UniProt P07947). As to the kind of experiment: Selectivity interaction (KinomeScan (DiscoverX)) EUB0000045b YES1.
For data set [20], the target named is Platelet-derived growth factor receptor alpha (Homo sapiens, UniProt P16234). As to the kind of experiment: Selectivity interaction (KinomeScan (DiscoverX)) EUB0000618a PDGFRA. As to conditions: at 10 µM.

Sequence of Serine/threonine-protein kinase 38-like (Homo sapiens) (Q9Y2H1 2-464 limits assumed): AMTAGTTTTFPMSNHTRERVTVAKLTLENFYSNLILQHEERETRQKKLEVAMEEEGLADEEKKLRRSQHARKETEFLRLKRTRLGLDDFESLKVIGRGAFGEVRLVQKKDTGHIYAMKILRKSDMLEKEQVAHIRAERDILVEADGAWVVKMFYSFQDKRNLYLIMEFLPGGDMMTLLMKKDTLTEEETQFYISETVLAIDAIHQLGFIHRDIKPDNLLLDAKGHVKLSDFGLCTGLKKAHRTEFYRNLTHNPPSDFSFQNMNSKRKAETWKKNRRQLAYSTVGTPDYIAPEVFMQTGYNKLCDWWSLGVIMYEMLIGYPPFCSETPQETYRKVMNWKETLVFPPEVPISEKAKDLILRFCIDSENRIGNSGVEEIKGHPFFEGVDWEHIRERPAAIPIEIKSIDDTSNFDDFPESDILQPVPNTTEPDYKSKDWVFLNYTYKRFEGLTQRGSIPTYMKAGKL
T1 sequence (O60674 whole entry): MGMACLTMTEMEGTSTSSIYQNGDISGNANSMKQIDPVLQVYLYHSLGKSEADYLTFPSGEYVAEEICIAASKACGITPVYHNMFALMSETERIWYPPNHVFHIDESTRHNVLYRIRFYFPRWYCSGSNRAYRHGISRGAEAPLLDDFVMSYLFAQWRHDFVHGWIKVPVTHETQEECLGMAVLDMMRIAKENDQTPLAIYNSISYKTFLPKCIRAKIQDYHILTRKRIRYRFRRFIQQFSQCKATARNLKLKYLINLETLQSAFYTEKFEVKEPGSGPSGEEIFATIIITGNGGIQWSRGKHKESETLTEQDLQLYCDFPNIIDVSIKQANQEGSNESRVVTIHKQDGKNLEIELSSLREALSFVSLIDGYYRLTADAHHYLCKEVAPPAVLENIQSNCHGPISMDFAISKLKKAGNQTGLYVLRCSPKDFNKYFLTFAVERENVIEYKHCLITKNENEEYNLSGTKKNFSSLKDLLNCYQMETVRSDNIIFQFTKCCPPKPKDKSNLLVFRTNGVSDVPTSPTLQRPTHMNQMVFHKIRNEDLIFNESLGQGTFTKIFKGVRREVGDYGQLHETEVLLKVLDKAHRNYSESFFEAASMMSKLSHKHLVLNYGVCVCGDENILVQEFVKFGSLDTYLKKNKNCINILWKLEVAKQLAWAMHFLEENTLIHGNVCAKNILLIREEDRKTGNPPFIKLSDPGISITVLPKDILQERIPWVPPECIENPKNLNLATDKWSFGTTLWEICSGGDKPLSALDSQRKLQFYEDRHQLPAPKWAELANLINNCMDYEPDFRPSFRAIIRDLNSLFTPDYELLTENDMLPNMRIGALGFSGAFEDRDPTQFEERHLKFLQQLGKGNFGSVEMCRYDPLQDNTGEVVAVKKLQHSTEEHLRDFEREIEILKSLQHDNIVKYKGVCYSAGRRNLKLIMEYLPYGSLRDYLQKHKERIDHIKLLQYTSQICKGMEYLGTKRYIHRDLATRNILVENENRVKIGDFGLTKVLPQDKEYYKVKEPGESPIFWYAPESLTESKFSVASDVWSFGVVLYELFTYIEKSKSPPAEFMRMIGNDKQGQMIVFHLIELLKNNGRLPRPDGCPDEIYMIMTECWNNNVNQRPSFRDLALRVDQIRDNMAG
Sequence of Tyrosine-protein kinase Yes (Homo sapiens) (P07947 2-543 limits assumed): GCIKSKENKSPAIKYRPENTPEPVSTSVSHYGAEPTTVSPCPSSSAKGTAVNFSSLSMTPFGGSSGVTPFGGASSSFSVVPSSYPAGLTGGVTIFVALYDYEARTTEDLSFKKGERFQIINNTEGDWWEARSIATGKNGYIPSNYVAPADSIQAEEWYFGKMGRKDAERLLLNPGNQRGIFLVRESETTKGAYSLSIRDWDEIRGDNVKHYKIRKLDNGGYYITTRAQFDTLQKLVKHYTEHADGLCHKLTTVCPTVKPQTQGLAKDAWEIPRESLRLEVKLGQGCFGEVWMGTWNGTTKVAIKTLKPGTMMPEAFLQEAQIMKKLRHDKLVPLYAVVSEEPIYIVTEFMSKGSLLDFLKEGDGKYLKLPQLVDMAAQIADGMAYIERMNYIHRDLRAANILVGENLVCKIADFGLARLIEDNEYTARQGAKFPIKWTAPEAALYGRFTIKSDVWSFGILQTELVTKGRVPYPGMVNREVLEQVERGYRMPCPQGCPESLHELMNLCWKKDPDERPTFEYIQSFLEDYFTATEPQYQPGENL
Sequence of Type-2 angiotensin II receptor (Homo sapiens) (P50052 whole entry): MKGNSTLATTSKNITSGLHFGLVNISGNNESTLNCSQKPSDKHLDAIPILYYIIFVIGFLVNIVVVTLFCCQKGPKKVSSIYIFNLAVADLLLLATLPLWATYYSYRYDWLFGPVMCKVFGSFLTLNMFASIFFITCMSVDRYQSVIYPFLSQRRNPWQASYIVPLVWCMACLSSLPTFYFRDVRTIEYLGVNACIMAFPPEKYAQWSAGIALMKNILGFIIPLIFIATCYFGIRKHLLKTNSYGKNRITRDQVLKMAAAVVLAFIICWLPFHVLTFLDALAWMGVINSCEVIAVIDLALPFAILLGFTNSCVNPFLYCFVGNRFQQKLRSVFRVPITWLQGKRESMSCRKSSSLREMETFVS
Sequence of Fibroblast growth factor receptor 4 (P22455 22-802 limits assumed): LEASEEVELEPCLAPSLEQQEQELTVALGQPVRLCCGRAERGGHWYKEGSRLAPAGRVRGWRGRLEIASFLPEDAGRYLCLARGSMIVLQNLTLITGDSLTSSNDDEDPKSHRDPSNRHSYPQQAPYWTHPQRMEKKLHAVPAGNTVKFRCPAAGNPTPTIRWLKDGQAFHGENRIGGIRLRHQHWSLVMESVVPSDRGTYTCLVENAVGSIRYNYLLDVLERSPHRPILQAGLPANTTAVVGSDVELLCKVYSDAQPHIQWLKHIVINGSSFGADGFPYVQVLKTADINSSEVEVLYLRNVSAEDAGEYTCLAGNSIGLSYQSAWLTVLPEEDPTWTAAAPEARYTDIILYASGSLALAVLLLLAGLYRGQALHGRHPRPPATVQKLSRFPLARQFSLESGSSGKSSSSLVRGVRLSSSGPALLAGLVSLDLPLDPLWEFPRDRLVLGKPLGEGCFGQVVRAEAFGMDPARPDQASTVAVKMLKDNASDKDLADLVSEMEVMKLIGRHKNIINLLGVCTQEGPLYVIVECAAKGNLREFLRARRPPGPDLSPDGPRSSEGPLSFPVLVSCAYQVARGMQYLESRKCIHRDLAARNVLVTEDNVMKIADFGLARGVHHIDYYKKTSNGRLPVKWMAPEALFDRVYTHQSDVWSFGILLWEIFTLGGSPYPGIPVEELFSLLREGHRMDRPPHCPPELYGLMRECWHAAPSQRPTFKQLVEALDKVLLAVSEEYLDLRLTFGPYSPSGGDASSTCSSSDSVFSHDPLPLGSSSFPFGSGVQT
Sequence of Casein kinase II subunit alpha' (Homo sapiens) (P19784 whole entry, looked up): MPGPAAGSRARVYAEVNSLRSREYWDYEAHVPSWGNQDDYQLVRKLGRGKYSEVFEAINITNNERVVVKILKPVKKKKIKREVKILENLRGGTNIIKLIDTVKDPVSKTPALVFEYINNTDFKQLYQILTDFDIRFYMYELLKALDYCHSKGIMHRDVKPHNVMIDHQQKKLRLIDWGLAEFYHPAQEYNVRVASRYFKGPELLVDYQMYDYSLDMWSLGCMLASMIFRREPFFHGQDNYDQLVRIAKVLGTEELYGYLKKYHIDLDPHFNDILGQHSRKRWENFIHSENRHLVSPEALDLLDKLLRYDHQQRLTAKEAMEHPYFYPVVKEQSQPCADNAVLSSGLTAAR
Sequence of STE20-like serine/threonine-protein kinase (Q9H2G2 whole entry, looked up): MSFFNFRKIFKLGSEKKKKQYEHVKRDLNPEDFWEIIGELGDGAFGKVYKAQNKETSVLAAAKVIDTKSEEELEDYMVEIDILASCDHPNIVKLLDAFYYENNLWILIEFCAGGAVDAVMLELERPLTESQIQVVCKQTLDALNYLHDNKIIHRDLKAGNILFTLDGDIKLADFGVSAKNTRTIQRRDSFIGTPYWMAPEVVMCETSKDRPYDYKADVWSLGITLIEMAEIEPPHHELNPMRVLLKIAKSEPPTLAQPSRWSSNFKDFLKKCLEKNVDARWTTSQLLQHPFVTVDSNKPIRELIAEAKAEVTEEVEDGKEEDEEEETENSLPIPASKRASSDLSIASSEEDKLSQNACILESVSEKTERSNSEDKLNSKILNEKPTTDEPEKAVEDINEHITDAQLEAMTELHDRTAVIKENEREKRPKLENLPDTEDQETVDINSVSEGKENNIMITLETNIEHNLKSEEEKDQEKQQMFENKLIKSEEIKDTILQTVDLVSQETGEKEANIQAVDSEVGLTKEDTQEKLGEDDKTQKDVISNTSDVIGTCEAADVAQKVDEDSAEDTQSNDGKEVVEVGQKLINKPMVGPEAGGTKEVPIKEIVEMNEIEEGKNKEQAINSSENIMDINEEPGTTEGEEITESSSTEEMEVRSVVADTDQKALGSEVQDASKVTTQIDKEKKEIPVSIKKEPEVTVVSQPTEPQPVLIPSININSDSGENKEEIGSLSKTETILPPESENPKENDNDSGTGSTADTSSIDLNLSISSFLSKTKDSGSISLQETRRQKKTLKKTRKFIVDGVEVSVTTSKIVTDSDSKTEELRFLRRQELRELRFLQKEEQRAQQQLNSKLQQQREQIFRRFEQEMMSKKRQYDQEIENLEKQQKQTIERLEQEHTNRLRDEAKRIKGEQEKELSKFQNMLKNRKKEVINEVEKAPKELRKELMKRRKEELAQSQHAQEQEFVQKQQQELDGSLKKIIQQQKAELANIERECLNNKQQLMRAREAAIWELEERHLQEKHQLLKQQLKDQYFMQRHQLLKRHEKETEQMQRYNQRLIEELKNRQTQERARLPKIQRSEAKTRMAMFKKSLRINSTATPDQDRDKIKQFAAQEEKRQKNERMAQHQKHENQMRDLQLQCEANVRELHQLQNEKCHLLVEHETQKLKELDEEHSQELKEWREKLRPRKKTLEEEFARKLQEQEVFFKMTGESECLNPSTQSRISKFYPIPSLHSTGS

As to `Cn1cc(-n2cnc3c(NCc4nc5cc(Cl)c(Cl)cc5[nH]4)nc(N4CCOCC4)nc32)cn1`, the values for the % of inhibition in [1] and in [2] were -49.1% and 20%, respectively. For `CNCCN1CCC(c2cc(CN(C)C(=O)c3cccc(Oc4ccccc4)c3)ccn2)CC1`, the values for the % activity in [3] and in data set [4] were > 90% and 82%, respectively. For the compound `Nc1cnc(N2CCc3cc(S(=O)(=O)Nc4c(F)cc(Cl)cc4F)cc(N4CCCC4=O)c32)nc1` [TP-020n], the values for the % of control in data set [5] and in data set [6] were 100% and 97%, respectively. In the case of `N#Cc1cccc(-c2c[nH]c3ncnc(N4CCOCC4)c23)c1`, the figures for the % of control in [7] and in data set [8] were 71% and 95%, respectively. Turning to `CC[C@@H]1[C@H](F)C(=O)N[C@@H]1COc1nccc2cc(C(N)=O)c(OC)cc12` [ZIMLOVISERTIB], the % of inhibition is 20.8% in data set [9]; 5.2% in [10] (at 0.01 µM); -2% in data set [10] (at 0.04 µM); 12% in data set [10] (at 0.2 µM); 51.5% in data set [10] (at 1 µM); 82.9% in data set [10] (at 5 µM). Besides, the % of inhibition was 85.9% in [11] and -1.2% in [12]. Regarding `CCN(CC)CCCCNc1ncc2cc(-c3cc(OC)cc(OC)c3)c(NC(=O)NC(C)(C)C)nc2n1`, in [13], the % of control was 100%.

In data set [14], `COc1cc(Nc2nc(C)cc(-c3cnn4nc(OC)ccc34)n2)cc(C(F)(F)F)c1` gave a % of control of 59%. In the case of `Cc1cc(F)c(C(=O)Nc2cccc(-c3nncn3C(C)C)n2)cc1-n1cnc(C2CC2)c1`, the % of control in data set [15] came to 85%. `CN(C)CCCOc1ccc(-c2cc(NCCCn3cccn3)nc(S(C)(=O)=O)n2)cc1` yielded a dTM in data set [16] of 4 K. On to `CC(=O)c1cc(-c2ccccc2OCC2CC2)c2ncccn12`, for which, in [17], the % of control amounted to 106%. `COc1cc(C(=O)N2CC[C@@H](O)[C@@H](N)C2)cc2nc(-c3cc4ccccc4n3CC3CC3)n(C)c12`: the XC50 in data set [18] is > 25.1 µM. As for `C=CC(=O)Nc1cc(-n2c(=O)ccc3cnc4ccc(-c5ccc(NS(C)(=O)=O)cc5)cc4c32)ccc1C`, the % of control in data set [19] (at 1 µM) stood at 74%; in data set [19] (at 10 µM) it was 100%. The compound `O[C@H]1CC[C@H](Nc2ncc3nc(Nc4c(F)cc(F)cc4F)n([C@H]4CCOC4)c3n2)CC1` returned a % of control in data set [20] of 82%.
